Measured values taken from patent US10689362B2, “Quinoxaline compounds as type III receptor tyrosine kinase inhibitors” (Development Center for Biotechnology, priority 2016, dated 2020).

Experiments:
PDGFRβ kinase = PDGFRβ kinase (Homo sapiens (Human), UniProt P09619); assay: PDGFRβ kinase assay (radiometric); type: biochemical
Summary of the method: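 Radiometric assay: recombinant PDGFRβ with poly(Glu4:Tyr1) in MOPS pH 7.0 buffer containing Mg2+/Mn2+, 10 μM ATP plus [33P]-ATP, and compound at 4% DMSO final. Incubated 60 min at 30° C, stopped with phosphoric acid, filter-captured and scintillation-counted. IC50 from curve fitting.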

[1] = system: Kasumi-1 human acute myeloid leukemia cell with c-KIT N822K activating mutation; assay: Kasumi-1 cell proliferation assay (CellTiter-96); type: cell-based; details: Cytotoxicity, Kasumi-1 cells, 72 hours
Summary of the method: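 Kasumi-1 cells, seeded at 64000 cells/well and incubated overnight at 37 °C, were exposed to increasing compound concentrations for 72 h. Viability was measured by CellTiter96 AQueous One reagent (4 h) and absorbance at 490 nm.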

FLT3 kinase = FLT3 kinase (Homo sapiens (Human), UniProt P36888); assay: FLT3 kinase assay (radiometric); type: biochemical
Chain of FLT3 kinase (P36888 27-993): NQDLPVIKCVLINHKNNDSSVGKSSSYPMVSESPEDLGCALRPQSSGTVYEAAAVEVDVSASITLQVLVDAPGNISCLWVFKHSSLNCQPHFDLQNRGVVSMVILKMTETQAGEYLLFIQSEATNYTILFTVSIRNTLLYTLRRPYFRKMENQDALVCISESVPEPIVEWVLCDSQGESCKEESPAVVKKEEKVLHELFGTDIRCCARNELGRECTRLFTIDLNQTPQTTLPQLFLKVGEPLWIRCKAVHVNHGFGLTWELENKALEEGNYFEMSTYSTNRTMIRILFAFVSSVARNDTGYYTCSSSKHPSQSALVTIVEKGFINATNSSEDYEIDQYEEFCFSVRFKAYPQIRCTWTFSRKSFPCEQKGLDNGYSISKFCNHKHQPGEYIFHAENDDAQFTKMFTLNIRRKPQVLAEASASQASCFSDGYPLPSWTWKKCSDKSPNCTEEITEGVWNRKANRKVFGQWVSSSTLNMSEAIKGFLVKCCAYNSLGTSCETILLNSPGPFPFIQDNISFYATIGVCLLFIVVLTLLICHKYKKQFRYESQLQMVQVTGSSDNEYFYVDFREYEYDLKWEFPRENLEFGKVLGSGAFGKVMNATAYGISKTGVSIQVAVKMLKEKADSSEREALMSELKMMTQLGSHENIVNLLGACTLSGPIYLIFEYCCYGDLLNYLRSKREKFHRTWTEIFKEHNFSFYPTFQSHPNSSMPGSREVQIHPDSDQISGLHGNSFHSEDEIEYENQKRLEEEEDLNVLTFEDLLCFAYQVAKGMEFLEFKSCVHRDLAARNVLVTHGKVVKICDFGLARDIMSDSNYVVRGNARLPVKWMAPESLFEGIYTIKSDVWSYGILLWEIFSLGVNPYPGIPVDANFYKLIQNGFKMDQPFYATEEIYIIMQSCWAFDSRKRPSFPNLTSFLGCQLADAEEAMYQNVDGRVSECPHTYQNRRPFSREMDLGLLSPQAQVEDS
Summary of the method: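 Recombinant FLT3 (5 ng) phosphorylating poly(Glu4:Tyr1) (2 μg) with 10 μM ATP plus [^33P]-ATP in MOPS pH 7.0 buffer, 4% DMSO final, 60 min at 30° C. Reaction stopped with phosphoric acid, filter-captured and scintillation-counted; IC50 derived from dose-response.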

[2] = system: THP-1 human acute monocytic leukemia cell harboring NRAS G12D mutation; assay: THP-1 cell proliferation assay (counter screen, CellTiter-96); type: cell-based; details: Cytotoxicity, THP-1 cells (counter screen), 72 hours
Summary of the method: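 THP-1 cells, RTK-independent owing to NRAS G12D, seeded at 5000/well, incubated overnight at 37 °C/5% CO2, then exposed to increasing compound concentrations for 72 h. CellTiter96 AQueous One reagent added for 4 h; viability from absorbance at 490 nm.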

[3] = system: MV4-11 human acute myeloid leukemia cell with FLT3-ITD mutation; assay: MV4-11 cell proliferation assay (CellTiter-96); type: cell-based; details: Cytotoxicity, MV4-11 cells, 72 hours
Summary of the method: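 MV4-11 cells (FLT3-ITD, FLT3-dependent growth) seeded at 6500 cells/well, incubated overnight at 37° C., 5% CO2, then exposed to increasing compound concentrations for 72 hours. Viability read by CellTiter96 AQueous One reagent (4 hours), absorbance at 490 nm.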

[4] = system: osteoclast precursors (osteoclast differentiation); assay: Osteoclast tartrate-resistant acid phosphatase assay; type: cell-based; details: 168 h, at 1 μM treatment, 7 days, RANKL and M-CSF, read-out: inhibition activity against osteoclast differentiation
Summary of the method: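 Differentiation inhibition was scored at 1 μM compound in duplicate, using supernatant TRAP activity read at 550 nm with an acid phosphatase kit.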

CSF-1R kinase = CSF-1R kinase (Homo sapiens (Human), UniProt P07333); assay: CSF-1R kinase assay (AlphaScreen); type: biochemical; details: class symbol
Chain of CSF-1R kinase (P07333 20-972): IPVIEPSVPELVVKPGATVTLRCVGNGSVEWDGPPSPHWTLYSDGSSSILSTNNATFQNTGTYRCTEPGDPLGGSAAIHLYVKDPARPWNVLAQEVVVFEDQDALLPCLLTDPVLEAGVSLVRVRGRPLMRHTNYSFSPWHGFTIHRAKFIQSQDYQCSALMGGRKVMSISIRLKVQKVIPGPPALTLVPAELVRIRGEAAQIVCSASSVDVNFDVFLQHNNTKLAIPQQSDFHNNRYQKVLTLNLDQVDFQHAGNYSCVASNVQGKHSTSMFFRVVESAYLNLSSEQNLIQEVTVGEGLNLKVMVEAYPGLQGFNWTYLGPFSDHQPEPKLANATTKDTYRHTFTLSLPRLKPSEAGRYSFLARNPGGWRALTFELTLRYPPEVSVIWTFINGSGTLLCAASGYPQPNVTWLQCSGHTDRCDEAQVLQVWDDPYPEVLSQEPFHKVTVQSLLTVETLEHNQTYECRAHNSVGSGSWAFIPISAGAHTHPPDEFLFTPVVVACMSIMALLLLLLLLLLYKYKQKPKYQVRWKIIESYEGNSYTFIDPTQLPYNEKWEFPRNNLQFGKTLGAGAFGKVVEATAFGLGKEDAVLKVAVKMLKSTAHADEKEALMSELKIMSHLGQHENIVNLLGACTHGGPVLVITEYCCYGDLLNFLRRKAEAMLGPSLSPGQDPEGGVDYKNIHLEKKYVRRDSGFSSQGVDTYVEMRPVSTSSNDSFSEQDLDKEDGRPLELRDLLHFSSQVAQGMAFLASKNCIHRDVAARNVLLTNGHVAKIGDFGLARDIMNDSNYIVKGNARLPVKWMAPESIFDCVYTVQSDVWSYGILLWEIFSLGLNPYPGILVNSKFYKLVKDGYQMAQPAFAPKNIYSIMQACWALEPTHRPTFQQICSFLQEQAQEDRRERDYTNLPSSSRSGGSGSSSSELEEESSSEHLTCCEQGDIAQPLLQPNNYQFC
Experimental: Inhibition of CSF-1R kinase activity by a test compound disclosed herein was estimated by AlphaScreen (PerkinElmer). […] Reactions were incubated at 30° C. for 45 min and stopped by adding 5 μL of 50 mM EDTA. Analysis of resulting product using an AlphaScreen kit, and counted with Enspire Alpha (PerkinElmer). […] The IC50 values of quinoxaline compounds of this invention against CSF-1R kinase were determined using the GraphPad Prism 5 software.

c-KIT kinase = c-KIT kinase (Homo sapiens (Human), UniProt P10721); assay: c-KIT kinase assay (radiometric); type: biochemical; details: class symbol
Chain of c-KIT kinase (P10721 26-976): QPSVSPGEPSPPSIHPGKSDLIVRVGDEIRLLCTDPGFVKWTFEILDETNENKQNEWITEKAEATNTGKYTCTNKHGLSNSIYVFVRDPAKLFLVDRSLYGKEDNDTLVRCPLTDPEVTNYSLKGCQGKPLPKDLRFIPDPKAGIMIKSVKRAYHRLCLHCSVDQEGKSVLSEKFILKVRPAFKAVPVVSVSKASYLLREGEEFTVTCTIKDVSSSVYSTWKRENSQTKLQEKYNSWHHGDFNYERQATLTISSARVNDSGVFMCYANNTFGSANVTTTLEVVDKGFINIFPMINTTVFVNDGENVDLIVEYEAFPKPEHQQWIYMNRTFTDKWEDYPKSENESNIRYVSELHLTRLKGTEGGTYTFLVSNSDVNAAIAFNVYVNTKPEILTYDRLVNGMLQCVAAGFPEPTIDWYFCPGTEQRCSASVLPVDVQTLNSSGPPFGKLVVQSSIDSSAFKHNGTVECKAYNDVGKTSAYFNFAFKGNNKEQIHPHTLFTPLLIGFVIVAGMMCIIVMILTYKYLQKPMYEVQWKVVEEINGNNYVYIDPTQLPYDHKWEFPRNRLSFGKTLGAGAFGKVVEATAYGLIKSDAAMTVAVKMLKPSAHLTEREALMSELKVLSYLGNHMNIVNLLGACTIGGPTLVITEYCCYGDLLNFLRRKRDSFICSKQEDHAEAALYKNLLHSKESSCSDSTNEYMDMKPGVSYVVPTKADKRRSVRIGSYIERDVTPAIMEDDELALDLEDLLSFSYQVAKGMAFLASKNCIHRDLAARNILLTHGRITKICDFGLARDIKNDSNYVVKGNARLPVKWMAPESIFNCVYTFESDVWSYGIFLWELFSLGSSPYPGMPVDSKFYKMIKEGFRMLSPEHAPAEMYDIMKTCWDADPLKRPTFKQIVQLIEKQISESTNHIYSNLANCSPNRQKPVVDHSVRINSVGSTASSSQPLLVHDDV
Summary of the method: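 Recombinant c-Kit (20 ng) with 2 μg Poly-(Glu4:Tyr1) in MOPS pH 7.0 buffer with MgCl2/MnCl2, 10 μM ATP plus [^33P]-ATP, 4% DMSO final, 60 min at 30° C. Stopped with phosphoric acid, filter-captured and scintillation counted; IC50 from curve fit.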

[5] = system: CSF-1-dependent M-NFS-60 mouse myeloid leukemia cell; assay: M-NFS-60 cell proliferation assay (CellTiter-96); type: cell-based; details: Cytotoxicity, M-NFS-60 cells, 72 hours
Summary of the method: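 CSF-1-dependent M-NFS-60 cells seeded at 2000 cells/well, settled overnight at 37 °C, 5% CO2, then exposed to increasing compound concentrations for 72 h. Viability read by CellTiter 96 AQueous One reagent (4 h) at 490 nm absorbance.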

Chain of PDGFRβ kinase (P09619 33-1106): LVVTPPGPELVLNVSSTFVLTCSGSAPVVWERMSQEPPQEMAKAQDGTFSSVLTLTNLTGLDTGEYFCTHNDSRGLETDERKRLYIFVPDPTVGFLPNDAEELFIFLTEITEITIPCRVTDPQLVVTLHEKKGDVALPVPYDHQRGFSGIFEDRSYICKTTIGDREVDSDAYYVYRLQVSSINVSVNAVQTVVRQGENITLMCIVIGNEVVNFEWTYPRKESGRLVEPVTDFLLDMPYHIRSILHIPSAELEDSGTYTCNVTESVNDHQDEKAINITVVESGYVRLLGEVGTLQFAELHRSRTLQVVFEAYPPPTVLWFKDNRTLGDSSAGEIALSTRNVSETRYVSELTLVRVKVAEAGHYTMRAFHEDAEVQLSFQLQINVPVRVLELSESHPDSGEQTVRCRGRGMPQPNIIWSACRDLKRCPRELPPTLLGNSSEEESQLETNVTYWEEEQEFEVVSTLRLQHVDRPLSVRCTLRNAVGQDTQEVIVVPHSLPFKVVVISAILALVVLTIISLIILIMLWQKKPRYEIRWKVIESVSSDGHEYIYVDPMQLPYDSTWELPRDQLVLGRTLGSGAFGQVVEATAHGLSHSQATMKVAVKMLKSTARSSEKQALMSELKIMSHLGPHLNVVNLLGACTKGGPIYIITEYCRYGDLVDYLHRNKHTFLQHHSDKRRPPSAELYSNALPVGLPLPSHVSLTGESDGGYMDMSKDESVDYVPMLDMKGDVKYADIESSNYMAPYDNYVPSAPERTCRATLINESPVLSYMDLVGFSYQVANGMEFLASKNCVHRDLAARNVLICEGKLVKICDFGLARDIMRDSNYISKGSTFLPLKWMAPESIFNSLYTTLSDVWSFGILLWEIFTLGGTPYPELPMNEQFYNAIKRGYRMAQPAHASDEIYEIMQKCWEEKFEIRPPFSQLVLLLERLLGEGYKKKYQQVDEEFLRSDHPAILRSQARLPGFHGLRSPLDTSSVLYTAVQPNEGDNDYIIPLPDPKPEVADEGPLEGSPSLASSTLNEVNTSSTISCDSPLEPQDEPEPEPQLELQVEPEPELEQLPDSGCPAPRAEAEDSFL

COc1ccc(COc2ccc(Nc3ccc4ncc(N5CCN(CCOC(C)=O)CC5)nc4c3C#N)cc2OC)cn1 [Example 74, 2-(4-(8-cyano-7-((3-methoxy-4-((6-methoxypyridin-3-yl)methoxy)phenyl)amino)quinoxalin-2-yl)piperazin-1-yl)ethyl acetate]
IC50 (PDGFRβ kinase; bound): > 1000 nM | IC50 [1]: 300 to 1000 nM | IC50 (FLT3 kinase; bound): > 1000 nM | IC50 [2]: > 10000 nM | IC50 [3]: 1000 to 10000 nM | inhibition at 1 µM [4]: > 50% | IC50 (CSF-1R kinase): < 100 nM | IC50 (c-KIT kinase): < 100 nM | IC50 [5]: < 300 nM

COc1cc(Nc2ccc3ncc(N(C)C)nc3c2C#N)ccc1OCc1ccc(C)nc1 [Example 133, 3-(dimethylamino)-6-((3-methoxy-4-((6-methylpyridin-3-yl)methoxy)phenyl)amino)quinoxaline-5-carbonitrile]
IC50 (PDGFRβ kinase; bound): > 1000 nM | IC50 [1]: 300 to 1000 nM | IC50 (FLT3 kinase; bound): > 1000 nM | IC50 [2]: > 10000 nM | IC50 [3]: > 10000 nM | inhibition at 1 µM [4]: > 50% | IC50 (CSF-1R kinase): < 100 nM | IC50 (c-KIT kinase): < 100 nM | IC50 [5]: < 300 nM

COc1cc(N(C)c2ccc3ncc(N4CCOCC4)nc3c2C#N)ccc1OCc1ccc(C)nc1 [Example 129, 6-((3-methoxy-4-((6-methylpyridin-3-yl)methoxy)phenyl)(methyl)amino)-3-morpholinoquinoxaline-5-carbonitrile]
IC50 (PDGFRβ kinase; bound): > 1000 nM | IC50 [1]: 1000 to 10000 nM | IC50 (FLT3 kinase; bound): > 1000 nM | IC50 [2]: > 10000 nM | IC50 [3]: 1000 to 10000 nM | inhibition at 1 µM [4]: > 50% | IC50 (CSF-1R kinase): < 100 nM | IC50 (c-KIT kinase): 300 to 1000 nM | IC50 [5]: 300 to 1000 nM

CCc1ccc(COc2ccc(Nc3ccc4ncc(N5CCOCC5)nc4c3C#N)cc2OC)cc1 [Example 33, 6-((4-((4-ethylbenzyl)oxy)-3-methoxyphenyl)amino)-3-morpholinoquinoxaline-5-carbonitrile]
IC50 (PDGFRβ kinase; class symbol): 100 to 300 nM | IC50 [1]: < 300 nM | IC50 (FLT3 kinase; bound): > 1000 nM | IC50 [2]: > 10000 nM | IC50 [3]: 1000 to 10000 nM | inhibition at 1 µM [4]: > 50% | IC50 (CSF-1R kinase): < 100 nM | IC50 (c-KIT kinase): < 100 nM | IC50 [5]: < 300 nM

COc1ccc(COc2ccc(Nc3ccc4ncc(N5CCOCC5)nc4c3C#N)cn2)cc1 [Example 52, 6-((6-((4-methoxybenzyl)oxy)pyridin-3-yl)amino)-3-morpholinoquinoxaline-5-carbonitrile]
IC50 (PDGFRβ kinase; bound): > 1000 nM | IC50 [1]: 300 to 1000 nM | IC50 (FLT3 kinase; class symbol): 300 to 1000 nM | IC50 [2]: > 10000 nM | IC50 [3]: < 300 nM | inhibition at 1 µM [4]: > 50% | IC50 (CSF-1R kinase): < 100 nM | IC50 (c-KIT kinase): 100 to 300 nM | IC50 [5]: 300 to 1000 nM

CCOc1ccc(COc2ccc(Nc3ccc4ncc(N5CCOCC5)nc4c3C#N)cc2OC)cc1 [Example 35, 6-((4-((4-ethoxybenzyl)oxy)-3-methoxyphenyl)amino)-3-morpholinoquinoxaline-5-carbonitrile]
IC50 (PDGFRβ kinase; class symbol): 300 to 1000 nM | IC50 [1]: < 300 nM | IC50 (FLT3 kinase; bound): > 1000 nM | IC50 [2]: > 10000 nM | IC50 [3]: 1000 to 10000 nM | inhibition at 1 µM [4]: > 50% | IC50 (CSF-1R kinase): < 100 nM | IC50 (c-KIT kinase): < 100 nM | IC50 [5]: < 300 nM

COc1ccc(COc2ccc(Nc3ccc4ncc(N5CCN(C)CC5)nc4c3C#N)cc2OC)cn1 [Example 95, 6-((3-methoxy-4-((6-methoxypyridin-3-yl)methoxy)phenyl)amino)-3-(4-methylpiperazin-1-yl)quinoxaline-5-carbonitrile]
IC50 (PDGFRβ kinase; bound): > 1000 nM | IC50 [1]: 300 to 1000 nM | IC50 (FLT3 kinase; bound): > 1000 nM | IC50 [2]: 1000 to 10000 nM | IC50 [3]: 1000 to 10000 nM | inhibition at 1 µM [4]: > 50% | IC50 (CSF-1R kinase): < 100 nM | IC50 (c-KIT kinase): 100 to 300 nM | IC50 [5]: < 300 nM

COc1ccc(COc2ccc(Nc3ccc4ncc(N5CCC(N(C)C)CC5)nc4c3C#N)cc2OC)cc1F [Example 85, 3-(4-(dimethylamino)piperidin-1-yl)-6-((4-((3-fluoro-4-methoxy-benzyl)oxy)-3-methoxyphenyl)amino)quinoxaline-5-carbonitrile]
IC50 (PDGFRβ kinase; bound): > 1000 nM | IC50 [1]: < 300 nM | IC50 (FLT3 kinase; bound): > 1000 nM | IC50 [2]: 1000 to 10000 nM | IC50 [3]: 1000 to 10000 nM | inhibition at 1 µM [4]: > 50% | IC50 (CSF-1R kinase): < 100 nM | IC50 (c-KIT kinase): < 100 nM | IC50 [5]: < 300 nM
